Measured values as given in US4778818A, “Substituted 2-(heteroaryl-2-propenyl)phenols useful as anti-inflammatory agents” (Merck & Co., Inc., priority 1987, dated 1988).

Columns and labels:
[1] = tested on: inflammatory responses elicited by topically applied phorbol myristate acetate (PMA) or topically applied archidonic acid (AA) in mouse ear; experiment: Topical mouse ear assay (TME); type: in vivo, mice
Protocol: The topical mouse ear assay (TME) was used to evaluate the novel compounds of the present invention for its effect on inflammatory responses elicited by topically applied phorbol myristate acetate (PMA) or topically applied archidonic acid (AA).
TABLE I Topical Mouse Ear Assay
Method: The right ears of mice (5 mice per group) were treated topically with either […] or 1000 μg AA alone or with the test compound in 25 μl of vehicle. The vehicle was water/pyridine/acetone (1:2:97). A control group of mice received the vehicle only. The mice were allowed food and water ad libitum during the treatment period; 2 hours for AA and 4 hours for PMA. The mice were sacrificed by cervical dislocation and a 6 mm diameter disc of tissue punched from both the treated and untreated ears. The tissue biopsies were immediately weighed and the weight increase of the treated ear relative to the weight of the untreated ear determined.
At the termination of the experiment, the amount of radioactivity in both the treated and untreated ear biopsies was determined and the increased amount of radioactivity in the treated tissue relative to the amount of radioactive in the untreated tissue determined.
As a measure of PMN infiltration, the amount of myeloperoxidase (MPO) activity in the same tissues was determined. The tissue biopsies were homogenized into 1 ml 0.5% hexadecyltrimethylammonium bromide and centrifuged for 45 min. at 1200×g. Aliquots 40 μl, of the supernatant phases were assayed for MPO activity by a colorimetric method devised by H. Dougherty for automated Titertek analysis. The MPO activity is expressed as the OD450 of the treated ear homogenate minus the OD450 of the non-treated ear homogenate.
All of the data are expressed as the mean±SEM, N=5 mice/group.

[2] = tested on: inflammatory responses elicited by topically applied phorbol myristate acetate (PMA) or topically applied archidonic acid (AA) in mouse ear; conditions: previously established, in words; cited from earlier work

Row | SMILES | Edema (% inhibition) ([1]; dosage 5 μg) | activity in the topical mouse ear assay [2] | Edema (% inhibition) ([1]; dosage 50 μg) | Edema (% inhibition) ([1]; dosage 150 μg) | Edema (% inhibition) ([1]; dosage 300 μg)
1 | C[C@@H]1C[C@H]2[C@@H]3CCC4=CC(=O)C=C[C@]4(C)[C@@]3(F)[C@@H](O)C[C@]2(C)[C@@]1(O)C(=O)CO [Dexamethasone] | 60% | active |  |  | 
2 | OCc1ccccc1/C=C/Cc1cc2c(cc1O)CCO2 [A, 5-hydroxy-6-(2-hydroxymethylcinnamyl)-2,3-dihydrobenzofuran] |  |  | 37% | 54% | 88%
3 | COc1ccc2c(c1)c(CC(=O)O)c(C)n2C(=O)c1ccc(Cl)cc1 [Indomethacin] |  | active |  | 51% | 
